Data from US20100119458A1, “Compositions Containing Metal Oxide Particles and Their Use” (Spago Imaging AB, priority 2007, published 2010).

Assay: MRI measurements of relaxation rates and relaxivities
Format: physicochemical
Excerpt: where ρ=spin density, TE=echo time and TR=repetition time. Contrast agents that are paramagnetic are used to improve the resolution in the images. They have effects on both T1 and T2 but some agents have predominant effects on either T1 or T2. […] Gadolinium (III+) has a predominant effect on T1 and therefore has been used a positive contrast agent (increased MR signal). Iron (III+) has a predominant effect on T2 and has therefore been used as a negative contrast agent (decreased MR signal). The relaxation rate (1/Ti, i=1,2 for hydrogen) observed is proportional to the concentration C of a contrast agent used, i.e.
1/Ti(observed)=1/Ti(inherent)+riC
where 1/Ti (observed) is the relaxation rate in the presence of the contrast agent, 1/Ti (inherent) is the inherent tissue relaxation rate, and the proportionality constant ri is called the relaxivity constant for the contrast agent concerned. See Engström et al (Magn Reson Mater Phy 19 (2006) 180-186 and WO 2006031190 (Uvdal et al) and references cited therein.
15 MRI measurements: See Engström et al., Magn Reson Mater Phy, 19 (2006) 180-186.

## O=C([O-])CN(CCN(CC(=O)[O-])CC(=O)O)CCN(CC(=O)[O-])CC(=O)O.[Gd+3] [Gd^3+-DTPA]
Relaxation rate at 1 mM
  1/T1 (1 mM): 0.005 ms^−1
Relaxation rate, stated in words
  1/T2: lower values
